Experiment in all cases: Z'-LYTE kinase panel
Common to all, as to type: biochemical

One experiment has as its target T1, MST4 (Homo sapiens, UniProt Q9P289).
T1 construct: purchased ThermoFisher (SelectScreen, Z'-LYTE)
In short, it runs like this:
(§1)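 Percent inhibition measured at 10 µM compound using the standard Z′-LYTE protocol, as part of a 225-kinase standard panel screen.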

The next experiment concerns the target T2, CDK2/cyclin A (Homo sapiens, UniProt P24941).
T2 construct: purchased ThermoFisher (SelectScreen, Z'-LYTE)
In short, it runs like this: as §1

Another experiment deals with T3, MAPK1 (ERK2) (Homo sapiens, UniProt P28482).
T3 construct: purchased ThermoFisher (SelectScreen, Z'-LYTE)
The method in brief: as §1

The target in experiment [1] is T4, MAPK14 (p38 alpha) Direct (Homo sapiens, UniProt Q16539).
T4 construct: purchased ThermoFisher (SelectScreen, Z'-LYTE)
The method in brief: as §1

The next experiment addresses T5, NEK2 (Homo sapiens, UniProt P51955).
T5 construct: purchased ThermoFisher (SelectScreen, Z'-LYTE)
T5 sequence (P51955 1-445): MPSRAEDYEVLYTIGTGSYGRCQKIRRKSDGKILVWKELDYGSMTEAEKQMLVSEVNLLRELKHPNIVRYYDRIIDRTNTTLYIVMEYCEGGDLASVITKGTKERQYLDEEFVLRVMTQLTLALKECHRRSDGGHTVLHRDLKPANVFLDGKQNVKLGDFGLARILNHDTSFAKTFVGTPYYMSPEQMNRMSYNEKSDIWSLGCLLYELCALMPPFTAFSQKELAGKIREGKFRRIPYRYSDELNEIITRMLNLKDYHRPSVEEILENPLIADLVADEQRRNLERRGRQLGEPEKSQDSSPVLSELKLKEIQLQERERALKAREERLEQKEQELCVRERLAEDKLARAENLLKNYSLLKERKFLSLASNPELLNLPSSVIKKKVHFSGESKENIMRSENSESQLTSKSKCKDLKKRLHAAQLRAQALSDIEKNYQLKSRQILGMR
The method in brief:
as §1

The target in the next experiment is T6, FYN (Homo sapiens, UniProt P06241).
T6 construct: purchased ThermoFisher (SelectScreen, Z'-LYTE)
The method in brief:
as §1

The target of the next experiment is T7, DCAMKL2 (DCK2) (Homo sapiens, UniProt Q8N568).
T7 construct: purchased ThermoFisher (SelectScreen, Z'-LYTE)
T7 sequence (Q8N568 1-766): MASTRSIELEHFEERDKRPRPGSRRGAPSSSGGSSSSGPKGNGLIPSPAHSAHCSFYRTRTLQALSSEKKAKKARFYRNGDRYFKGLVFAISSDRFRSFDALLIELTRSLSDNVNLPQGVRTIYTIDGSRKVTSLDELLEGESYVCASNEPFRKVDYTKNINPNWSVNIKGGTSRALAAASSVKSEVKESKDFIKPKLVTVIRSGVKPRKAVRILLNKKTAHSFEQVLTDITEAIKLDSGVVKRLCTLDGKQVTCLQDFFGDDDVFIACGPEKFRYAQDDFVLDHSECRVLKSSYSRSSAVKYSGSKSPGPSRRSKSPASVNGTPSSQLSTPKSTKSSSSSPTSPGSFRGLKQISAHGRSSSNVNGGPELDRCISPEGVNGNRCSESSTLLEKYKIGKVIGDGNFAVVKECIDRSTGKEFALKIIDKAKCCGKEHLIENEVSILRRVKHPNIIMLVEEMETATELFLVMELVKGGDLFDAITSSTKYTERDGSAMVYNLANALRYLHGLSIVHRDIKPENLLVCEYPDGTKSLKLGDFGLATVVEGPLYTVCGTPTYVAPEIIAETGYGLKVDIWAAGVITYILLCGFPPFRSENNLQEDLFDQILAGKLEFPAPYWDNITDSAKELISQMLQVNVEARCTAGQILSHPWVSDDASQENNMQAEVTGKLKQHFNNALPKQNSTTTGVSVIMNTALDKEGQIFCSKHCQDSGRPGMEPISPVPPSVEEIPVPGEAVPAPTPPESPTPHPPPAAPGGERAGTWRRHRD
In short, it runs like this: as §1

A further experiment has as its target T8, ZAP70 (Homo sapiens, UniProt P43403).
T8 construct: purchased ThermoFisher (SelectScreen, Z'-LYTE)
T8 sequence (P43403 1-619): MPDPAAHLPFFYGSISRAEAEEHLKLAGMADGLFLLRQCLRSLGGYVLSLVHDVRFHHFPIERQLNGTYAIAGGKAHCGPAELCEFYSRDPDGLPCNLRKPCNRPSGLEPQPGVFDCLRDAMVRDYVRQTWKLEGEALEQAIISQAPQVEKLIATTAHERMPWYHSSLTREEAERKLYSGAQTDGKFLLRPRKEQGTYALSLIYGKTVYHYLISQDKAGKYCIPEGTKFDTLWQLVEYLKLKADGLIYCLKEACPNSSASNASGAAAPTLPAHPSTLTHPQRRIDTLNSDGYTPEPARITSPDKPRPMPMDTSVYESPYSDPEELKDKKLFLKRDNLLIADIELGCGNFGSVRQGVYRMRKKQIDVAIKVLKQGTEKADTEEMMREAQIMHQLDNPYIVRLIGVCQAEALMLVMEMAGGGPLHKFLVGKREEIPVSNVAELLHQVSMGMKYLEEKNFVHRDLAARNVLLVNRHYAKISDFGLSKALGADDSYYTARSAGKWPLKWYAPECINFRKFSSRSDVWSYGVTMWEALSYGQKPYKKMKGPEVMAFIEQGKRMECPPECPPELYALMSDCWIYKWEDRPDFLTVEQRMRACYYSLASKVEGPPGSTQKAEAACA
The method in brief: as §1

Another experiment deals with T9, IGF1R (Homo sapiens, UniProt P08069).
T9 construct: purchased ThermoFisher (SelectScreen, Z'-LYTE)
In short, it runs like this:
as §1

The target in another experiment is T10, MAPK12 (p38 gamma) (Homo sapiens, UniProt P53778).
T10 construct: purchased ThermoFisher (SelectScreen, Z'-LYTE)
T10 sequence (P53778 1-367): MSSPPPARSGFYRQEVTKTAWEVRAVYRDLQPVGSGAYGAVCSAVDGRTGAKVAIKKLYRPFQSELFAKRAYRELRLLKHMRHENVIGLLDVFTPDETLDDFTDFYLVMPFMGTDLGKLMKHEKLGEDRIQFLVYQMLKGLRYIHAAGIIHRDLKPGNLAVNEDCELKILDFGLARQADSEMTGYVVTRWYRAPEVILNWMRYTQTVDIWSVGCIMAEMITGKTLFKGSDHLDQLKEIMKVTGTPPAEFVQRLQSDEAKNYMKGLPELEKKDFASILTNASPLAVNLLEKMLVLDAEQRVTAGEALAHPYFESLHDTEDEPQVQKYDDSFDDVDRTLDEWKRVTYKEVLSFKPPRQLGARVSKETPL
The method in brief: as §1

T3 sequence (P28482 whole entry): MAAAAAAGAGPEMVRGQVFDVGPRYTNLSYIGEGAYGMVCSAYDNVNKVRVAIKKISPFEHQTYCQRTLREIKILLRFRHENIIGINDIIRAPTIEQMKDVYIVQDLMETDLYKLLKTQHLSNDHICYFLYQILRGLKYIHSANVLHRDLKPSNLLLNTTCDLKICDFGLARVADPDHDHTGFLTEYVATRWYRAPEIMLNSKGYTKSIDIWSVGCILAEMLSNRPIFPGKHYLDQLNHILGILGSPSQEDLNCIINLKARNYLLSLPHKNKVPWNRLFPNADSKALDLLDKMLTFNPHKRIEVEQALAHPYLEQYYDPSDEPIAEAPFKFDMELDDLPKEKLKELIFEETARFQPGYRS
T9 sequence (P08069 31-1367): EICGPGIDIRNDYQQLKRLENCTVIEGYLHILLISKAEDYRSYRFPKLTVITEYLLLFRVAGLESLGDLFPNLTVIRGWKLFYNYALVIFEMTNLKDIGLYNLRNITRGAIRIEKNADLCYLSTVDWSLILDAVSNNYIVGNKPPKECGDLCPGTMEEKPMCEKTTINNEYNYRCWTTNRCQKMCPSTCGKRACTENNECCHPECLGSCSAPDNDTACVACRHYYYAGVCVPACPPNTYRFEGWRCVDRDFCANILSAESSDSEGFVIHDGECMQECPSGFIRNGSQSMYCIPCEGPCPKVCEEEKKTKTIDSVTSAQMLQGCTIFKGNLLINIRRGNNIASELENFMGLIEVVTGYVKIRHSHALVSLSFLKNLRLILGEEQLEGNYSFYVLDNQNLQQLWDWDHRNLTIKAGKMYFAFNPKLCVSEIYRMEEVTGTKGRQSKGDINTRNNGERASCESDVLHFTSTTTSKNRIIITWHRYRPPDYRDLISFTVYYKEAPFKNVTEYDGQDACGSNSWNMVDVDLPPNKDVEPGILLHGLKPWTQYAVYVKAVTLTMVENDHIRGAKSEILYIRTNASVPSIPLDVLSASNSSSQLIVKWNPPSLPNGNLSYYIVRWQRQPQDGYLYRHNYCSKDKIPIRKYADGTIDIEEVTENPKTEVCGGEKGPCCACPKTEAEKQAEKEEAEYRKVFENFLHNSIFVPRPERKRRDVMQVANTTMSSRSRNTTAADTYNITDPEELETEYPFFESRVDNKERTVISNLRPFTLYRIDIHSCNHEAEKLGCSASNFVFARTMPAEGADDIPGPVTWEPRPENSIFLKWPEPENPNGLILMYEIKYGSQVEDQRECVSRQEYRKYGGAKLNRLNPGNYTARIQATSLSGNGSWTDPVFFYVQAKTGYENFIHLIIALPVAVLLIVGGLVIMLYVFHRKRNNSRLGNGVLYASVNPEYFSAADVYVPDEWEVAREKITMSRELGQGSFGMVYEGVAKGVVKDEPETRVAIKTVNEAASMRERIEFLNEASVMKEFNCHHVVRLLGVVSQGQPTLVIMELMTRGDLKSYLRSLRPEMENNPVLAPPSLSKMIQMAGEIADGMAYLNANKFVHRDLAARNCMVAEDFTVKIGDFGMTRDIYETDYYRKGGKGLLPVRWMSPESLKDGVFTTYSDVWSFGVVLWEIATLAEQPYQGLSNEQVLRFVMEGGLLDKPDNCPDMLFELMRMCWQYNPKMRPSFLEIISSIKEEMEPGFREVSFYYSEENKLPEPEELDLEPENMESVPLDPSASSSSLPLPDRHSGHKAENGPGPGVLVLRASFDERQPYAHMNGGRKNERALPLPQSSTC
T1 sequence (Q9P289 whole entry): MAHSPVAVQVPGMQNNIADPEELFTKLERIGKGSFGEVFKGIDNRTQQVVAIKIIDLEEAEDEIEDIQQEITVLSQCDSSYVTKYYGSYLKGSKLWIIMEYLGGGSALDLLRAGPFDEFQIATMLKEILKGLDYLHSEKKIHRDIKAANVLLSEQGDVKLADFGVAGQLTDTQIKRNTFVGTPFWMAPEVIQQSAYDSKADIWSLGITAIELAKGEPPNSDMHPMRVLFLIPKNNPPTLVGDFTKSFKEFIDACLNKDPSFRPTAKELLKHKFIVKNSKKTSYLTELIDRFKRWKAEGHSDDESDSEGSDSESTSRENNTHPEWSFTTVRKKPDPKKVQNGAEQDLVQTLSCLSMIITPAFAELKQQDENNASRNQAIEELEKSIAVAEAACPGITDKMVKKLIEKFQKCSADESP
T6 sequence (P06241 whole entry): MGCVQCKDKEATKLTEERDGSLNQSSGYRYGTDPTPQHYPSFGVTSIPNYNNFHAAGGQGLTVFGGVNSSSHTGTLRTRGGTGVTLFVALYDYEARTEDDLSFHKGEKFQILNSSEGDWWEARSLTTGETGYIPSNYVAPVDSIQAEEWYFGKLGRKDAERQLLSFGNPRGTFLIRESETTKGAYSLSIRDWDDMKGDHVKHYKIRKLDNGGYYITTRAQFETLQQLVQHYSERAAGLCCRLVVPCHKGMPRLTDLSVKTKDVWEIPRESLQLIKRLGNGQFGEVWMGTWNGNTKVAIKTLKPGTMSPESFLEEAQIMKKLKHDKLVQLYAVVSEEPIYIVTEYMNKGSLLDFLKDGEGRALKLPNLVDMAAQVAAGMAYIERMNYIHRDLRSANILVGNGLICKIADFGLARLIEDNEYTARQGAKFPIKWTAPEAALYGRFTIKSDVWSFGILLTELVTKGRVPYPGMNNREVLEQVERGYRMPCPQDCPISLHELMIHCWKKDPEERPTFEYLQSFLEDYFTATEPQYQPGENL
T4 sequence (Q16539 whole entry): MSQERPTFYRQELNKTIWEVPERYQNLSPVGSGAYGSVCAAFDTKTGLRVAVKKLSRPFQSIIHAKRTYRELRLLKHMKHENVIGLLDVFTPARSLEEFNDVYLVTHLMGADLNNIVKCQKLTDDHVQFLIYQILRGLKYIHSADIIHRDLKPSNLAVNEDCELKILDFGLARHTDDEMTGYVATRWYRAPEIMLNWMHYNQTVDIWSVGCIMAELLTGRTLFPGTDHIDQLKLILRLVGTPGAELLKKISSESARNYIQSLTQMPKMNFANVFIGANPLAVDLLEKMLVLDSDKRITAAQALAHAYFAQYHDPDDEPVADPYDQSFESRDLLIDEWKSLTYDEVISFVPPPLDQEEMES

Consider “XMD8-92 [Compound 2, reference compound]”, for which, on MST4 (10 µM compound, ATP Km app), the “MST4 % Inhibition” value amounted to 15%. Also, at CDK2/cyclin A (10 µM compound, ATP Km app), the “CDK2/cyclin A % Inhibition” value is 20%. In addition, the “MAPK1 (ERK2) % Inhibition” value at MAPK1 (ERK2) (10 µM compound, ATP Km app) is listed as 9%. Besides, in [1] (10 µM compound, ATP Km app), the “MAPK14 (p38 alpha) Direct % Inhibition” value is on record as 8%. For the same compound, the “NEK2 % Inhibition” value on NEK2 (10 µM compound, ATP Km app) is reported as -17%. Besides, the “FYN % Inhibition” value on FYN (10 µM compound, ATP Km app) is given as -14%. For the same compound, the “DCAMKL2 (DCK2) % Inhibition” value at DCAMKL2 (DCK2) (10 µM compound, ATP Km app) worked out at 61%. Moreover, the “ZAP70 % Inhibition” value on ZAP70 (10 µM compound, ATP Km app) was 12%. Besides, the “IGF1R % Inhibition” value at IGF1R (10 µM compound, ATP Km app) is listed as -1.87%. The “MAPK12 (p38 gamma) % Inhibition” value at MAPK12 (p38 gamma) (10 µM compound, ATP Km app) came to 3.54%.

On to `Cc1cc(Nc2nc(N)nn2C(=O)NC(C)C)ccc1Cl` [Compound 5], for which the inhibition at 10 µM on MST4 was 43%; at CDK2/cyclin A, 56%; against MAPK1 (ERK2) it was 6%; in [1], 9%; at NEK2, -3%; at FYN, 15%. Further, the inhibition at 10 µM was -1.9% on DCAMKL2 (DCK2), 12% on ZAP70, -0.717% on IGF1R and 1.08% against MAPK12 (p38 gamma).

Regarding `Cc1ncc(-c2nc(Nc3ccc(C(=O)NCCN4CCCCC4)cc3)ncc2F)n1C(C)C` [Compound 3], the inhibition at 10 µM on MST4 is 75%; at CDK2/cyclin A it was 101%; against MAPK1 (ERK2), 39%; in experiment [1], 9%; against NEK2 it was -7.52%; against FYN it was 74%. Moreover, the inhibition at 10 µM on DCAMKL2 (DCK2) was found to be 62%; against ZAP70, 19%; on IGF1R, 67%; against MAPK12 (p38 gamma), 46%.

The values are drawn from publication PMC4854315, “Discovery of a novel allosteric inhibitor-binding site in ERK5: comparison with the canonical kinase hinge ATP-binding site” (Acta Crystallographica. Section D, Structural Biology, 2016).
